Measurements taken from PubChem BioAssay (NCI).
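A five-concentration, 48-hour dose response in 96-well plates underlies each endpoint, interpolated linearly between surrounding concentrations. Here, GI50 denotes the concentration required for 50% inhibition of growth. Definition used: TGI = concentration required for complete inhibition of growth.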

How the values were obtained:
Assay in all cases: NCI anticancer screen, dose series, 48 h
[1] = system: BT-549 breast
[2] = system: NCI-H23 lung
[3] = system: MOLT-4 leukemia
[4] = system: M14 melanoma
[5] = system: SW-620 colon
[6] = system: T-47D breast
[7] = system: HCT-15 colon
[8] = system: U251 CNS
[9] = system: OVCAR-5 ovarian
[10] = system: NCI-H226 lung
[11] = system: OVCAR-3 ovarian
[12] = system: A498 renal
[13] = system: UACC-257 melanoma
[14] = system: HL-60(TB) leukemia
[15] = system: HS 578T breast
[16] = system: SN12C renal
[17] = system: SK-MEL-2 melanoma
[18] = system: ACHN renal
[19] = system: HCT-116 colon
[20] = system: UACC-62 melanoma
[21] = system: CCRF-CEM leukemia
[22] = system: NCI-H522 lung
[23] = system: TK-10 renal
[24] = system: HOP-62 NSCLC
[25] = system: SNB-19 CNS
[26] = system: SK-OV-3 ovarian
[27] = system: IGROV1 ovarian
[28] = system: 786-0 renal
[29] = system: K-562 leukemia
[30] = system: HCC-2998 colon
[31] = system: SR leukemia
[32] = system: HOP-92 NSCLC
[33] = system: MCF7 breast
[34] = system: A549 NSCLC
[35] = system: RXF 393 renal
[36] = system: MDA-MB-435
[37] = system: SK-MEL-5 melanoma
[38] = system: NCI-H460 lung
[39] = system: CAKI-1 renal
[40] = system: MDA-MB-231 breast
[41] = system: SF-268 CNS
[42] = system: COLO 205 colon
[43] = system: DU-145 prostate
[44] = system: MALME-3M melanoma
[45] = system: PC-3 prostate
[46] = system: SNB-75 CNS
[47] = system: OVCAR-4 ovarian
[48] = system: KM12 colon
[49] = system: SF-295 CNS
[50] = system: SK-MEL-28 melanoma
[51] = system: RPMI-8226 leukemia
[52] = system: NCI/ADR-RES ovarian
[53] = system: SF-539 CNS
[54] = system: OVCAR-8 ovarian
[55] = system: UO-31 renal
[56] = system: EKVX NSCLC
[57] = system: HT29 colon

NS(=O)(=O)c1ccc(Nc2nc(Nc3ccccc3)nc(-n3nc(-c4ccccc4)cc3-c3ccccc3)n2)cc1
GI50 [1]: 2.24 µM | TGI [1]: 5.54 µM | GI50 [2]: 2.84 µM | TGI [2]: 9.12 µM | GI50 [3]: 1.51 µM | TGI [3]: 6.47 µM | GI50 [4]: 3.22 µM | TGI [4]: 12.5 µM | GI50 [5]: 3.52 µM | TGI [5]: 32.1 µM | GI50 [6]: 2.96 µM | TGI [6]: 13.2 µM | GI50 [7]: 3.08 µM | TGI [7]: 11.2 µM | GI50 [8]: 2.91 µM | TGI [8]: 10.3 µM | GI50 [9]: 3.34 µM | TGI [9]: 14.3 µM | GI50 [10]: 2.52 µM | TGI [10]: 11 µM | GI50 [11]: 2.24 µM | TGI [11]: 4.97 µM | GI50 [12]: 3.34 µM | TGI [12]: 8.08 µM | GI50 [13]: 3.26 µM | TGI [13]: 23.3 µM | GI50 [14]: 2.24 µM | TGI [14]: 8.26 µM | GI50 [15]: 4.31 µM | TGI [15]: 62.7 µM | GI50 [16]: 1.47 µM | TGI [16]: 2.88 µM | GI50 [17]: 2.39 µM | TGI [17]: 6.95 µM | GI50 [18]: 2.59 µM | TGI [18]: 9.95 µM | GI50 [19]: 1.74 µM | TGI [19]: 3.39 µM | GI50 [20]: 1.81 µM | TGI [20]: 3.76 µM | GI50 [21]: 2.94 µM | TGI [21]: > 100 µM | GI50 [22]: 2.29 µM | TGI [22]: 7.39 µM | GI50 [23]: 3.87 µM | TGI [23]: 8.93 µM | GI50 [24]: 3.29 µM | TGI [24]: 12.4 µM | GI50 [25]: 3.43 µM | TGI [25]: 20.9 µM | GI50 [26]: 5.37 µM | TGI [26]: > 100 µM | GI50 [27]: 2.72 µM | TGI [27]: 11.4 µM | GI50 [28]: 3.09 µM | TGI [28]: 10.6 µM | GI50 [29]: 2.62 µM | TGI [29]: 10.8 µM | GI50 [30]: 2.98 µM | TGI [30]: 6.84 µM | GI50 [31]: 1.94 µM | TGI [31]: 5.94 µM | GI50 [32]: 2.16 µM | TGI [32]: 6.18 µM | GI50 [33]: 2.27 µM | TGI [33]: 6.61 µM | GI50 [34]: 3.18 µM | TGI [34]: 17.9 µM | GI50 [35]: 1.99 µM | TGI [35]: 5.23 µM | GI50 [36]: 3.32 µM | TGI [36]: 12.9 µM | GI50 [37]: 2.33 µM | TGI [37]: 5.54 µM | GI50 [38]: 2.07 µM | TGI [38]: 4.66 µM | GI50 [39]: 2.45 µM | TGI [39]: 9.55 µM | GI50 [40]: 1.81 µM | TGI [40]: 3.85 µM | GI50 [41]: 3.97 µM | TGI [41]: > 100 µM | GI50 [42]: 1.78 µM | TGI [42]: 3.27 µM | GI50 [43]: 3.16 µM | TGI [43]: 13 µM | GI50 [44]: 2.43 µM | TGI [44]: 7.09 µM | GI50 [45]: 2.37 µM | TGI [45]: 7.89 µM | GI50 [46]: 4.61 µM | TGI [46]: > 100 µM | GI50 [47]: 2.77 µM | TGI [47]: 9.32 µM | GI50 [48]: 2.77 µM | TGI [48]: 8.2 µM | GI50 [49]: 3.02 µM | TGI [49]: 10.5 µM | GI50 [50]: 3.87 µM | TGI [50]: 16.9 µM | GI50 [51]: 2.49 µM | TGI [51]: 8.69 µM | GI50 [52]: 2.93 µM | TGI [52]: 11 µM | GI50 [53]: 2.66 µM | TGI [53]: 10.3 µM | GI50 [54]: 3.22 µM | TGI [54]: 16 µM | GI50 [55]: 2.38 µM | TGI [55]: 10 µM | GI50 [56]: 2.96 µM | TGI [56]: 17.4 µM | GI50 [57]: 2.38 µM | TGI [57]: 5.48 µM
